In US9540423B2, “Plant defensins and use in the treatment of proliferative diseases” (Balmoral Australia Pty Ltd, priority 2011, dated 2017):
Like-named read-outs stand apart in the source and are kept apart here.

What was measured:
Phoma betae = details: cited from earlier work
[1] = subcutaneous, intraperitoneal or intratumoural routes; previous studies; cited from earlier work
[2] = tested on: Fusarium oxysporum f. sp. vasinfectum (Fov); details: cited from earlier work
Aspergillus nidulans = details: cited from earlier work
Thielaviopsis basicola = details: cited from earlier work
Leptosphaeria maculans = details: cited from earlier work
[3] = tested on: normal human umbilical vein endothelial cells (HUVEC); experiment: MTT cell viability assay, HUVEC; type: cell-based; details: 48 h
Experimental: Tumour cells were seeded in quadruplicate into wells of a flat-bottomed 96-well microtitre plate (50 μL) at various densities starting at 2×10^6 cells/mL. Four wells containing complete culture medium alone were included in each assay as a background control. The microtitre plate was incubated overnight at 37° C. under a humidified atmosphere containing 5% CO2/95% air, prior to the addition of complete culture medium (100 μL) to each well and further incubated at 37° C. for 48 h. Optimum cell densities (30-50% confluency) for cell viability assays were determined for each cell line by light microscopy.
Tumour cells were seeded in a 96-well microtitre plate (50 μL/well) at an optimum density determined in the cell optimisation assay as above. Background control wells (n=8) containing the same volume of complete culture medium were included in the assay. The microtitre plate was incubated overnight at 37° C., prior to the addition of proteins at various concentrations and the plate was incubated for a further 48 h. […]
The effect of NoD173 on the viability of a tumour cell line and a normal human cell isolate was determined using a 3-(4,5-dimethyl-2-thiazolyl)-2,5-diphenyl-2H-tetrazolium bromide (MTT) in vitro cell culture viability assay. […]

Verticillium dahliae = details: cited from earlier work

Substance	Concentration inhibiting growth of Phoma betae (Phoma betae)	Dose at which toxicity was shown [1]	Growth inhibition of Fov ([2]; 1 μM)	Growth inhibition of Fov ([2]; 5 μM)	Growth inhibition of A. nidulans (Aspergillus nidulans; 1 μM)	Growth inhibition of A. nidulans (Aspergillus nidulans; 5 μM)	Growth inhibition of T. basicola (Thielaviopsis basicola; 1 μM)	Growth inhibition of T. basicola (Thielaviopsis basicola; 5 μM)	Growth inhibition of L. maculans (Leptosphaeria maculans; 1 μM)	Growth inhibition of L. maculans (Leptosphaeria maculans; 5 μM)	IC50 [3]	Growth inhibition of V. dahliae (Verticillium dahliae; 1 μM)	Growth inhibition of V. dahliae (Verticillium dahliae; 5 μM)
Rs-AFP2: antifungal protein (plant defensin) isolated from radish seeds, 51 amino acids (QKLCQRPSGTWSGVCGNNNACKNQCIRLEKARHGSCNYVFPAHKCICYFPC; UniProt P30230 30-80, looked up)	1 µg/mL	–	–	–	–	–	–	–	–	–	–	–	–
NaD1: plant defensin isolated from floral tissue of Nicotiana alata; model class II defensin (RECKTESNTFPGICITKPPCRKACISEKFTDGHCSKILRRCLCTKPC; UniProt Q8GTM0 26-72, looked up)	–	above 1 mg/kg body weight	50%	more than 80%	approximately 65%	more than 80%	approximately 65%	more than 80%	50%	more than 80%	15 µM	approximately 65%	more than 80%
